Series [1] is described as follows: Stability test of Compound 19 crystalline form I (XRD). Type of series: physicochemical.
The nature of series [2]: Pharmacokinetic assay in male SD rats, single gavage. Type of series: in vivo. The conditions noted are these: Sprague-Dawley (SD), rat, plasma. The method, then:
Male SD rats were offered by Beijing Vital River Laboratory Animal Technology Co., Ltd., the rats were divided into groups of 3, and the suspension of the test sample (5 mg/kg-20 mg/kg) was given by single gavage. The animals were fasted overnight before the experiment, the fasting time was from 10 hours before the administration to 4 hours after the administration. Blood was collected at 0.25, 0.5, 1, 2, 4, 7, and 24 hours after administration. Blood was collected from fundus venous plexus, and placed in EDTA-K2 anticoagulation tube. The sample was centrifuged at 4° C. and 4000 rpm for 10 min, the plasma was transferred into centrifuge tubes and the compound to be test was extracted by protein precipitation, the extract was analyzed by LC-MS/MS.

For a further series, the target named is BRD4(D1) (Homo sapiens (Human), UniProt O60885). Nature of the series: Inhibitory activity against BRD4(D1), HTRF assay. It is filed as binding. The procedure: (§1) (+)-JQ1 was used as comparison compound, to evaluated the inhibitory activity of compounds of the invention against BRD4(D1) and BRD4(D2) in vitro.
(§2) The assays of BRD4 (D1) and BRD4 (D2) were conducted in a 384-well polystyrene plate. The test compounds were first serially diluted in DMSO and the test compound/DMSO were transferred to 384-well plates. The final concentration of DMSO in the assay was 0.1%. 2 volumes of protein/peptide mixture were added into 384-well plates, then 2 volumes of assay mixture were added, and shake for 30 s. The plate was incubated at room temperature for 2 h. Then the HTRF signal on EnVision was readed.
(§3) Use equation (1) to fit the date in Excel to obtain the value of the inhibition rate. Inhibition rate (%)=(maximum value−signal value)/(maximum value−minimum value)*100 Equation(1):
(§4) IC50 determination was performed by fitting the data using GraphPad Prism 5.0 software and equation (2). Y=bottom+(Top−bottom)/(1+10^((Log IC50−X)*HillSlope)); Equation(2): wherein, Y represents the percentage of inhibition (%); X represents the concentration of test compounds.
(§5) The IC50 data of the examples were provided in the following table, wherein, A stands for IC50<100 nM; B stands for IC50 is 100-300 nM; C stands for IC50>300 nM.
Background: TR-FRET usually uses a lanthanide donor and a delayed reading to cut background.

The target of another series is BRD4(D2) (Homo sapiens (Human), UniProt O60885). The series is described as follows: Inhibitory activity against BRD4(D2), HTRF assay. Type of series: binding. The method, then:
as §1, §2, §3, §4, §5

With `Cc1nc2ncc(-c3cn(C)c(=O)c4[nH]ccc34)nc2n1Cc1ccc(C(F)(F)F)cc1` [Crystalline Form I of compound 19, 6-methyl-4-(2-methyl-1-(4-(trifluoromethyl)benzyl)-1H-imidazo[4,5-b]pyrazin-6-yl)-1H-pyrrolo[2,3-c]pyridin-7(6H)-one], the “solid form stability (XRD)” value in series [1] (25° C.-60% RH for 10 days), in series [1] (40° C.-75% RH for 14 days) and in series [1] (dried at 80° C. for 24 hours) was “no solid form change” each time.
Regarding `Cc1nc2ncc(-c3cn(C)c(=O)c4[nH]ccc34)nc2n1Cc1ccc(Cl)cc1` [Example 18, 4-(1-(4-chlorobenzyl)-2-methyl-1H-imidazo[4,5-b]pyrazin-6-yl)-6-methyl-1H-pyrrolo[2,3-c]pyridin-7(6H)-one], in series [2] (oral dose 10 mg/kg), the exposure AUC(0-t) came to 2290 ng·h/mL, the maximum concentration (Cmax) was 224 ng/mL and the half-life is 204 min.
On to `Cc1nc2ncc(-c3cn(C)c(=O)c4[nH]ccc34)nc2n1Cc1ccc(C(F)(F)F)cc1` [Example 19, 6-methyl-4-(2-methyl-1-(4-(trifluoromethyl)benzyl)-1H-imidazo[4,5-b]pyrazin-6-yl)-1H-pyrrolo[2,3-c]pyridin-7(6H)-one], for which, in series [2] (oral dose 10 mg/kg), the AUC(0-t) was found to be 9430 ng·h/mL, the concentration peaked (Cmax) at 730 ng/mL and the half-life is 270 min. This compound also displayed a concentration for half-maximal inhibition (IC50) at BRD4(D1) (numeric values) of 9.1 nM. Besides, it took 1.6 nM to reach half-maximal inhibition against BRD4(D2) (numeric values) (IC50).
For `Cc1nc2ncc(-c3cn(C)c(=O)c4[nH]ccc34)nc2n1Cc1cccc(C(F)(F)F)c1` [Example 23, 4-(1-(3-trifluoromethylbenzyl)-2-methyl-1H-imidazo[4,5-b]pyrazin-6-yl)-6-methyl-1H-pyrrolo[2,3-c]pyridin-7(6H)-one], in series [2] (oral dose 10 mg/kg), the AUC(0-t) is 2830 ng·h/mL, the Cmax amounted to 407 ng/mL and the half-life was 198 min. The compound also gave an IC50 against BRD4(D1) (class symbols) of under 100 nM. For the same compound, the 50% inhibitory concentration (IC50) on BRD4(D2) (class symbols) is under 100 nM.
In series [2] (oral dose 20 mg/kg), `Cc1nc2ncc(-c3cn(C)c(=O)c4[nH]ccc34)nc2n1Cc1cc(F)cc(C(F)(F)F)c1` [Example 25, 4-(1-(3-fluoro-5-trifluoromethylbenzyl)-2-methyl-1H-imidazo[4,5-b]pyrazin-6-yl)-6-methyl-1H-pyrrolo[2,3-c]pyridin-7(6H)-one] had an exposure AUC(0-t) of 13500 ng·h/mL, a maximum concentration (Cmax) of 1230 ng/mL and a half-life of 726 min. For the same compound, the IC50 against BRD4(D1) (class symbols) is under 100 nM. The IC50 on BRD4(D2) (class symbols) is under 100 nM.
In series [2] (oral dose 10 mg/kg), `Cc1nc2ncc(-c3cn(C)c(=O)c4[nH]ccc34)nc2n1Cc1ccc(Cl)c(C(F)(F)F)c1` [Example 27, 4-(1-(3-trifluoromethyl-4-chlorobenzyl)-2-methyl-1H-imidazo[4,5-b]pyrazin-6-yl)-6-methyl-1H-pyrrolo[2,3-c]pyridin-7(6H)-one] gave an AUC(0-t) of 8500 ng·h/mL, a Cmax of 1000 ng/mL and a half-life of 228 min. At BRD4(D1) (class symbols), this compound came in with an IC50 of under 100 nM. For the same compound, on BRD4(D2) (class symbols), the IC50 is under 100 nM.
In series [2] (oral dose 10 mg/kg), `Cn1cc(-c2cnc3cnn(Cc4ccc(Cl)cc4)c3c2)c2cc[nH]c2c1=O` [Example 39, 4-(1-(4-chlorobenzyl)-1H-pyrazolo[4,3-b]pyridin-6-yl)-6-methyl-1,6-dihydro-7H-pyrrolo[2,3-c]pyridin-7-one] showed an AUC(0-t) of 24000 ng·h/mL, a maximum concentration (Cmax) of 1700 ng/mL and a half-life of 246 min. The same compound came in with a half-inhibitory concentration (IC50) against BRD4(D1) (numeric values) of 21.2 nM. Also, on BRD4(D2) (numeric values), the half-maximal inhibitory concentration (IC50) was 7.9 nM.
In series [2] (oral dose 10 mg/kg), `CCS(=O)(=O)Nc1cc(-c2cn(C)c(=O)c3[nH]ccc23)nc2c1ncn2Cc1ccc(C(F)(F)F)cc1` [Example 58, N-(5-(6-methyl-7-oxo-6,7-dihydro-1H-pyrrolo[2,3-c]pyridin-4-yl)-3-(4-(trifluoromethyl)benzyl)-3H-imidazo[4,5-b]pyridin-7-yl)ethanesulfonamide] had an AUC(0-t) of 5100 ng·h/mL, a Cmax of 1960 ng/mL and a half-life of 138 min. On BRD4(D1) (numeric values), this compound gave a half-inhibitory concentration (IC50) of 1.6 nM. On BRD4(D2) (numeric values), this compound had an IC50 of 0.5 nM.
In series [2] (oral dose 5 mg/kg), `CCS(=O)(=O)Nc1cc(-c2cn(C)c(=O)c3[nH]ccc23)nc2c1ncn2Cc1ccc(F)cc1F` [Example 59, N-(3-(2,4-difluorobenzyl)-5-(6-methyl-7-oxo-6,7-dihydro-1H-pyrrolo[2,3-c]pyridin-4-yl)-3H-imidazo[4,5-b]pyridin-7-yl)ethanesulfonamide] gave an exposure AUC(0-t) of 10200 ng·h/mL, a Cmax of 3290 ng/mL and a half-life of 138 min. The midpoint of inhibition against BRD4(D1) (numeric values), the IC50, lay at 1.2 nM. At BRD4(D2) (numeric values), the IC50 came to 0.5 nM.
For `CCS(=O)(=O)Nc1cc(-c2cn(C)c(=O)c3[nH]ccc23)nc2c1ncn2Cc1cc(C(F)(F)F)ccc1F` [Example 61, N-(3-(2-fluoro-5-(trifluoromethyl)benzyl)-5-(6-methyl-7-oxo-6,7-dihydro-H-pyrrolo[2,3-c]pyridin-4-yl)-3H-imidazo[4,5-b]pyridin-7-yl)ethanesulfonamide], the IC50 against BRD4(D1) (class symbols) and against BRD4(D2) (class symbols) was under 100 nM each time.
Take `CCS(=O)(=O)Nc1cc(-c2cn(C)c(=O)c3[nH]ccc23)nc2c1ncn2Cc1cc(F)cc(F)c1` [Example 62, N-(3-(3,5-difluorobenzyl)-5-(6-methyl-7-oxo-6,7-dihydro-H-pyrrolo[2,3-c]pyridin-4-yl)-3H-imidazo[4,5-b]pyridin-7-yl)ethanesulfonamide]: the IC50 at BRD4(D1) (numeric values) worked out at 1.3 nM; at BRD4(D2) (numeric values), 1.2 nM.
On to `CCS(=O)(=O)Nc1cc(-c2cn(C)c(=O)c3[nH]ccc23)nc2c1ncn2Cc1ccccc1C(F)(F)F` [Example 63, N-(5-(6-methyl-7-oxo-6,7-dihydro-H-pyrrolo[2,3-c]pyridin-4-yl)-3-(2-(trifluoromethyl)benzyl)-3H-imidazo[4,5-b]pyridin-7-yl)ethanesulfonamide], for which the IC50 at BRD4(D1) (class symbols) and against BRD4(D2) (class symbols) was under 100 nM each time.
In series [2] (oral dose 6.7 mg/kg), `CCS(=O)(=O)Nc1cc(-c2cn(C)c(=O)c3[nH]ccc23)nc2c1nc(C)n2Cc1ccc(F)cc1F` [Example 64, N-(3-(2,4-difluorobenzyl)-2-methyl-5-(6-methyl-7-oxo-6,7-dihydro-1H-pyrrolo[2,3-c]pyridin-4-yl)-3H-imidazo[4,5-b]pyridin-7-yl)ethanesulfonamide] gave an exposure AUC(0-t) of 5590 ng·h/mL, a Cmax of 1480 ng/mL and a half-life of 210 min. This compound showed an IC50 against BRD4(D1) (numeric values) of 1.1 nM. At BRD4(D2) (numeric values), the midpoint of inhibition, the IC50, lay at 0.5 nM.
With `CCS(=O)(=O)Nc1cc(-c2cn(C)c(=O)c3[nH]ccc23)nc2c1nc(C)n2Cc1ccc(C(F)(F)F)cc1` [Example 65, N-(2-methyl-5-(6-methyl-7-oxo-6,7-dihydro-1H-pyrrolo[2,3-c]pyridin-4-yl)-3-(4-(trifluoromethyl)benzyl)-3H-imidazo[4,5-b]pyridin-7-yl)ethanesulfonamide], the IC50 against BRD4(D1) (class symbols) and against BRD4(D2) (class symbols) was under 100 nM in each case.
In the case of `CCS(=O)(=O)Nc1cc(-c2cn(C)c(=O)c3[nH]ccc23)nc2c1nc(C)n2Cc1ccccc1C(F)(F)F` [Example 66, N-(2-methyl-5-(6-methyl-7-oxo-6,7-dihydro-1H-pyrrolo[2,3-c]pyridin-4-yl)-3-(2-(trifluoromethyl)benzyl)-3H-imidazo[4,5-b]pyridin-7-yl)ethanesulfonamide], the IC50 against BRD4(D1) (class symbols) and against BRD4(D2) (class symbols) was under 100 nM throughout.
As to `CCS(=O)(=O)Nc1cc(-c2cn(C)c(=O)c3[nH]ccc23)nc2c1nc(C)n2Cc1cc(F)cc(F)c1` [Example 67, N-(3-(3,5-difluorobenzyl)-2-methyl-5-(6-methyl-7-oxo-6,7-dihydro-H-pyrrolo[2,3-c]pyridin-4-yl)-3H-imidazo[4,5-b]pyridin-7-yl)ethanesulfonamide], the IC50 at BRD4(D1) (class symbols) and on BRD4(D2) (class symbols) was under 100 nM throughout.
For the compound `CCS(=O)(=O)Nc1cc(-c2cn(C)c(=O)c3[nH]ccc23)nc2c1nc(C)n2Cc1c(C)cccc1C` [Example 68, N-(3-(2,6-dimethylbenzyl)-2-methyl-5-(6-methyl-7-oxo-6,7-dihydro-1H-pyrrolo[2,3-c]pyridin-4-yl)-3H-imidazo[4,5-b]pyridin-7-yl)ethanesulfonamide], the 50% inhibitory concentration (IC50) against BRD4(D1) (class symbols) and against BRD4(D2) (class symbols) was under 100 nM each time.

As usually defined, the AUC(0-t) is exposure summed from dosing to a finite time, without extrapolation to infinity. Broadly, the Cmax is the peak of the concentration-time curve. A word on the half-life: it is the time in which the quantity being followed falls by half. As a reminder, the IC50 is the midpoint of a concentration-inhibition curve. High values mean weaker potency in that assay, low ones greater potency in that assay.
